What all share (assay type): functional
Test [1] deals with Mus musculus. Put plainly: Tested in vivo antitumor activity at a dose of subcutaneous 33 mg/kg/injection in Madison 109 murine lung carcinoma (M109).
The test system of test [2] is Mus musculus. Put plainly: Tested in vivo antitumor activity at a dose of subcutaneous 48 mg/kg/injection relative to paclitaxel in Madison 109 murine lung carcinoma (M109).
In test [3] the test system is Mus musculus. Nature of the test: Tested in vivo antitumor activity at a dose of subcutaneous 18 mg/kg/injection relative to paclitaxel in Madison 109 murine lung carcinoma (M109).
In test [4] the test system is Mus musculus. Put plainly: Tested in vivo antitumor activity at a dose of subcutaneous 40 mg/kg/injection in Madison 109 murine lung carcinoma (M109).
The subject of test [5] is Mus musculus. Nature of the test: Tested in vivo antitumor activity at a dose of subcutaneous 24 mg/kg/injection relative to paclitaxel in Madison 109 murine lung carcinoma (M109).

Results on three compounds are retold here after ChEMBL document CHEMBL1152077, “Novel, water-soluble phosphate derivatives of 2-ethoxy carbonylpaclitaxel as potential prodrugs of paclitaxel: Synthesis and antitumor evaluation” (1995).

The structures appear in SMILES notation.

Regarding `CCOC(=O)O[C@@H](C(=O)O[C@H]1C[C@@]2(O)[C@@H](OC(=O)c3ccccc3)[C@@H]3[C@]4(OC(C)=O)CO[C@@H]4C[C@H](OC(=O)Cc4ccccc4OP(=O)([O-])O)[C@@]3(C)C(=O)[C@H](OC(C)=O)C(=C1C)C2(C)C)[C@@H](NC(=O)c1ccccc1)c1ccccc1.[Na+]`, the T-C was 1.5 days (optimal dose)-1 in the test on Mus musculus [1] and 15.8 days (optimal dose)-1 in the test on Mus musculus [2].

With `CCOC(=O)O[C@@H](C(=O)O[C@H]1C[C@@]2(O)[C@@H](OC(=O)c3ccccc3)[C@@H]3[C@]4(OC(C)=O)CO[C@@H]4C[C@H](OC(=O)CC(C)(C)c4c(C)cc(C)cc4OP(=O)([O-])O)[C@@]3(C)C(=O)[C@H](OC(C)=O)C(=C1C)C2(C)C)[C@@H](NC(=O)c1ccccc1)c1ccccc1.[Na+]`, the T-C with Mus musculus [3] was 12.3 days (optimal dose)-1; with Mus musculus [4], 18 days (optimal dose)-1.

As to `CCOC(=O)O[C@@H](C(=O)O[C@H]1C[C@@]2(O)[C@@H](OC(=O)c3ccccc3)[C@@H]3[C@]4(OC(C)=O)CO[C@@H]4C[C@H](OC(=O)c4ccccc4COP(=O)([O-])O)[C@@]3(C)C(=O)[C@H](OC(C)=O)C(=C1C)C2(C)C)[C@@H](NC(=O)c1ccccc1)c1ccccc1.[K+]`, the T-C in the test with Mus musculus [5] is on record as 10.8 days (optimal dose)-1; in the test with Mus musculus [4], 17 days (optimal dose)-1.
